Measurements published in the NIST ThermoML archive (doi:10.1021/acs.jced.8b01095).
Numbers after ± are expanded uncertainties.

Columns and labels:
[1] = xn = mol fraction of the nth substance listed; conditions: Liquid, x1 = 1; for viscosity: 2 kPa, Falling or rolling sphere viscometry; for speed of sound / mass density: 100 kPa; for speed of sound: Single path-length method; for mass density: Vibrating tube method
[2] = molar heat capacity at constant pressure; conditions: 100 kPa, Liquid, Extra sensitive DSC
[3] = Liquid; for viscosity: 2 kPa, Falling or rolling sphere viscometry; for speed of sound / mass density: 100 kPa; for speed of sound: Single path-length method; for mass density: Vibrating tube method

CCCCn1cc[n+](C)c1.F[P-](F)(F)(F)(F)F [1-butyl-3-methylimidazolium hexafluorophosphate] + CNc1ccccc1 showed a viscosity ([1]; 298.15 K) of 272.86 ± 57 mPa·s, a speed of sound ([1]; 298.15 K) of 1443.7 ± 3.2 m/s and a mass density ([1]; 298.15 K) of 1367.24 ± 1.1 kg/m3. For the same compound, the viscosity ([1]; 303.15 K) was 204.1 ± 48 mPa·s, the speed of sound ([1]; 303.15 K) was 1431.9 ± 3.2 m/s and the mass density ([1]; 303.15 K) was 1363.08 ± 1.1 kg/m3. It also gave a viscosity ([1]; 308.15 K) of 155.7 ± 34 mPa·s, a speed of sound ([1]; 308.15 K) of 1420.1 ± 3.2 m/s and a mass density ([1]; 308.15 K) of 1358.91 ± 1.1 kg/m3. For the same compound, the viscosity ([1]; 313.15 K) was 120.9 ± 24 mPa·s, the speed of sound ([1]; 313.15 K) was 1408.5 ± 3.2 m/s and the mass density ([1]; 313.15 K) was 1354.74 ± 1.1 kg/m3. The viscosity ([1]; 318.15 K) was 95.39 ± 18 mPa·s, the speed of sound ([1]; 318.15 K) was 1397.1 ± 3.2 m/s and the mass density ([1]; 318.15 K) was 1350.58 ± 1.1 kg/m3. For the same compound, the viscosity ([1]; 323.15 K) was 76.37 ± 15 mPa·s, the speed of sound ([1]; 323.15 K) was 1385.9 ± 3.2 m/s and the mass density ([1]; 323.15 K) was 1346.41 ± 1.1 kg/m3.

With CCCC[n+]1ccn(C)c1.O=S(=O)([N-]S(=O)(=O)C(F)(F)F)C(F)(F)F the “molar heat capacity at constant pressure” value ([2]; 298.15 K) was 567.22 ± 26 J/K/mol, the “molar heat capacity at constant pressure” value ([2]; 303.15 K) was 569.85 ± 26 J/K/mol and the “molar heat capacity at constant pressure” value ([2]; 308.15 K) was 572.64 ± 27 J/K/mol. The “molar heat capacity at constant pressure” value ([2]; 313.15 K) was 575.47 ± 27 J/K/mol, the “molar heat capacity at constant pressure” value ([2]; 318.15 K) was 578.38 ± 27 J/K/mol and the “molar heat capacity at constant pressure” value ([2]; 323.15 K) was 581.52 ± 27 J/K/mol. It also gave a viscosity ([3]; 298.15 K) of 49.24 ± 7.4 mPa·s, a speed of sound ([3]; 298.15 K) of 1227.9 ± 1.1 m/s and a mass density ([3]; 298.15 K) of 1436.62 ± 1.7 kg/m3. For the same compound, the viscosity ([3]; 303.15 K) was 40 ± 6.5 mPa·s, the speed of sound ([3]; 303.15 K) was 1216.8 ± 1.1 m/s and the mass density ([3]; 303.15 K) was 1431.8 ± 1.7 kg/m3. It also gave a viscosity ([3]; 308.15 K) of 33.02 ± 5 mPa·s, a speed of sound ([3]; 308.15 K) of 1205.8 ± 1.1 m/s and a mass density ([3]; 308.15 K) of 1426.98 ± 1.7 kg/m3. It also gave a viscosity ([3]; 313.15 K) of 27.66 ± 3.9 mPa·s, a speed of sound ([3]; 313.15 K) of 1195 ± 1.1 m/s and a mass density ([3]; 313.15 K) of 1422.16 ± 1.7 kg/m3. It also gave a viscosity ([3]; 318.15 K) of 23.47 ± 3.1 mPa·s, a speed of sound ([3]; 318.15 K) of 1184.2 ± 1.1 m/s and a mass density ([3]; 318.15 K) of 1417.34 ± 1.7 kg/m3. For the same compound, the viscosity ([3]; 323.15 K) was 20.15 ± 2.8 mPa·s, the speed of sound ([3]; 323.15 K) was 1173.6 ± 1.1 m/s and the mass density ([3]; 323.15 K) was 1412.52 ± 1.7 kg/m3.

With CNc1ccccc1 [N-methylaniline] the “molar heat capacity at constant pressure” value ([2]; 298.15 K) was 207.12 ± 9.6 J/K/mol, the “molar heat capacity at constant pressure” value ([2]; 303.15 K) was 210.92 ± 9.8 J/K/mol and the “molar heat capacity at constant pressure” value ([2]; 308.15 K) was 214.73 ± 10 J/K/mol. The “molar heat capacity at constant pressure” value ([2]; 313.15 K) was 218.53 ± 10 J/K/mol, the “molar heat capacity at constant pressure” value ([2]; 318.15 K) was 222.37 ± 10 J/K/mol and the “molar heat capacity at constant pressure” value ([2]; 323.15 K) was 225.88 ± 10 J/K/mol. The viscosity ([3]; 298.15 K) was 1.94 ± 0.62 mPa·s, the speed of sound ([3]; 298.15 K) was 1564.5 ± 0.7 m/s and the mass density ([3]; 298.15 K) was 982.7 ± 1.6 kg/m3. It also gave a viscosity ([3]; 303.15 K) of 1.73 ± 0.62 mPa·s, a speed of sound ([3]; 303.15 K) of 1546.1 ± 0.7 m/s and a mass density ([3]; 303.15 K) of 978.59 ± 1.6 kg/m3. It also gave a viscosity ([3]; 308.15 K) of 1.55 ± 0.61 mPa·s, a speed of sound ([3]; 308.15 K) of 1528.3 ± 0.7 m/s and a mass density ([3]; 308.15 K) of 974.47 ± 1.6 kg/m3. The viscosity ([3]; 313.15 K) was 1.4 ± 0.61 mPa·s, the speed of sound ([3]; 313.15 K) was 1511.5 ± 0.7 m/s and the mass density ([3]; 313.15 K) was 970.36 ± 1.6 kg/m3. For the same compound, the viscosity ([3]; 318.15 K) was 1.27 ± 0.61 mPa·s, the speed of sound ([3]; 318.15 K) was 1492.8 ± 0.7 m/s and the mass density ([3]; 318.15 K) was 966.24 ± 1.6 kg/m3. For the same compound, the viscosity ([3]; 323.15 K) was 1.16 mPa·s, the speed of sound ([3]; 323.15 K) was 1476.2 ± 0.7 m/s and the mass density ([3]; 323.15 K) was 962.13 ± 1.6 kg/m3.

With CCCCn1cc[n+](C)c1.F[P-](F)(F)(F)(F)F [1-butyl-3-methylimidazolium hexafluorophosphate] the “molar heat capacity at constant pressure” value ([2]; 298.15 K) was 407.08 ± 19 J/K/mol, the “molar heat capacity at constant pressure” value ([2]; 303.15 K) was 410.01 ± 19 J/K/mol and the “molar heat capacity at constant pressure” value ([2]; 308.15 K) was 412.77 ± 19 J/K/mol. For the same compound, the “molar heat capacity at constant pressure” value ([2]; 313.15 K) was 415.44 ± 19 J/K/mol, the “molar heat capacity at constant pressure” value ([2]; 318.15 K) was 418.26 ± 19 J/K/mol and the “molar heat capacity at constant pressure” value ([2]; 323.15 K) was 421.21 ± 20 J/K/mol. For the same compound, the viscosity ([3]; 298.15 K) was 272.86 ± 56 mPa·s, the speed of sound ([3]; 298.15 K) was 1443.7 ± 3.2 m/s and the mass density ([3]; 298.15 K) was 1367.24 ± 1.1 kg/m3. For the same compound, the viscosity ([3]; 303.15 K) was 204.1 ± 47 mPa·s, the speed of sound ([3]; 303.15 K) was 1431.9 ± 3.2 m/s and the mass density ([3]; 303.15 K) was 1363.08 ± 1.1 kg/m3. The viscosity ([3]; 308.15 K) was 155.7 ± 33 mPa·s, the speed of sound ([3]; 308.15 K) was 1420.1 ± 3.2 m/s and the mass density ([3]; 308.15 K) was 1358.91 ± 1.1 kg/m3. It also gave a viscosity ([3]; 313.15 K) of 120.9 ± 24 mPa·s, a speed of sound ([3]; 313.15 K) of 1408.5 ± 3.2 m/s and a mass density ([3]; 313.15 K) of 1354.74 ± 1.1 kg/m3. For the same compound, the viscosity ([3]; 318.15 K) was 95.39 ± 18 mPa·s, the speed of sound ([3]; 318.15 K) was 1397.1 ± 3.2 m/s and the mass density ([3]; 318.15 K) was 1350.58 ± 1.1 kg/m3. For the same compound, the viscosity ([3]; 323.15 K) was 76.37 ± 15 mPa·s, the speed of sound ([3]; 323.15 K) was 1385.9 ± 3.2 m/s and the mass density ([3]; 323.15 K) was 1346.41 ± 1.1 kg/m3.

In the case of CCCC[n+]1ccn(C)c1.O=S(=O)([N-]S(=O)(=O)C(F)(F)F)C(F)(F)F + CNc1ccccc1, the viscosity ([1]; 298.15 K) is reported as 49.24 ± 7.4 mPa·s, the speed of sound ([1]; 298.15 K) is reported as 1227.9 ± 1.1 m/s and the mass density ([1]; 298.15 K) is reported as 1436.62 ± 1.1 kg/m3. The viscosity ([1]; 303.15 K) was 40 ± 6.5 mPa·s, the speed of sound ([1]; 303.15 K) was 1216.8 ± 1.1 m/s and the mass density ([1]; 303.15 K) was 1431.8 ± 1.1 kg/m3. It also gave a viscosity ([1]; 308.15 K) of 33.02 ± 5 mPa·s, a speed of sound ([1]; 308.15 K) of 1205.8 ± 1.1 m/s and a mass density ([1]; 308.15 K) of 1426.98 ± 1.1 kg/m3. For the same compound, the viscosity ([1]; 313.15 K) was 27.66 ± 3.9 mPa·s, the speed of sound ([1]; 313.15 K) was 1195 ± 1.1 m/s and the mass density ([1]; 313.15 K) was 1422.16 ± 1.1 kg/m3. For the same compound, the viscosity ([1]; 318.15 K) was 23.47 ± 3.1 mPa·s, the speed of sound ([1]; 318.15 K) was 1184.2 ± 1.1 m/s and the mass density ([1]; 318.15 K) was 1417.34 ± 1.1 kg/m3. It also gave a viscosity ([1]; 323.15 K) of 20.15 ± 2.8 mPa·s, a speed of sound ([1]; 323.15 K) of 1173.6 ± 1.1 m/s and a mass density ([1]; 323.15 K) of 1412.52 ± 1.1 kg/m3.
